Results from paper PMC7062782, “A progesterone biosensor derived from microbial screening” (Nature Communications, 2020).

T1: SRTF1 (Pimelobacter simplex, UniProt A0A0A1DUF2)
T1 construct: gene KR76_27130; assembled on quantum dots for FRET
T1 sequence (A0A0A1DUF2 1-189): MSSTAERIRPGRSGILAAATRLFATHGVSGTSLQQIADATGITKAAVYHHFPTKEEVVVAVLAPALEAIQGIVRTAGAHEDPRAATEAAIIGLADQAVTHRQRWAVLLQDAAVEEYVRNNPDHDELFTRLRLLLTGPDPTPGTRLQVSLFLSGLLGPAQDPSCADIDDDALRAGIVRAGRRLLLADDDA

T2: SRTF1 (Pimelobacter simplex ATCC 6946, UniProt A0A0A1DUF2 1-189)
T2 sequence: T1 sequence (A0A0A1DUF2 1-189)

B1: BLI-SCRM (dsDNA)
DNA 1: AAATTGTCCCGGGCCTTTCTCCGCGCGTCTGGTAACCCTTAGGATTACTC
DNA 2: GAGTAATCCTAAGGGTTACCAGACGCGCGGAGAAAGGCCCGGGACAATTT

What was measured:
[1] = target: T1, SRTF1; assay: QD-TF-FRET, ligand-induced release of Cy5-labelled operator DNA; type: biochemical; conditions: sensor 3: QD/TF/DNA ratio 1:1:18, operator with 2 mutated bases in one half of palindrome, HEPES, RT; allosteric
[2] = target: T2, SRTF1; assay: BLI; no steroid; BLI: 28 mM Tris-HCl pH 8.0, 5 mM MgCl (so in the source), 4.25% glycerol, 25 mM NaCl, 1.67 mg/mL BSA, 30 C; QD-FRET: 1x HEPES with binding buffer (5x: 25 mM MgCl2, 25% glycerol, 250 mg/L salmon sperm DNA, 0.1 M Tris-HCl), RT; conditions: protein: recombinant; tags: C-terminal 6xHis; chain copies: 2; label: 5' biotin on strand 1; blunt

Row | Molecule | IC50 [1] | binding result [2]
1 | C[C@]12CCC(=O)C=C1CC[C@@H]1[C@@H]2[C@@H](O)C[C@]2(C=O)[C@@H](C(=O)CO)CC[C@@H]12 [ALD, aldosterone] | 312 ± 42 nM | –
2 | B1 | – | no binding
